Assay results reported in PubChem BioAssay AID330 (DTP/NCI, 2004).
Values joined by “and” are separate entries in the source; they are usually repeats but may differ in a detail not shown here. Equal values may be shown once. Inconclusive results and toxic doses are left out.

System: P388 leukemia ip, CD2F1 mice, survival T/C
Assay: NCI In Vivo Anticancer Drug Screen. Data for tumor model P388 Leukemia (intraperitoneal) in CD2F1 (CDF1) mice
Settings: endpoint: median survival time, higher = longer survival
Procedure, shortened: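 Mice carrying the transplanted tumor received test compound or vehicle. Survival was recorded in each group, and the value is the treated-group measurement divided by that of the vehicle-treated control group.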

[1] = dose: 100.0 mg/kg/injection, schedule: Q01DX001 (ip), vehicle: saline with Tween-80
[2] = dose: 200.0 mg/kg/injection, schedule: Q01DX001 (ip), vehicle: saline with Tween-80
[3] = dose: 400.0 mg/kg/injection, schedule: Q01DX001 (ip), vehicle: saline with Tween-80
[4] = dose: 100.0 mg/kg/injection, schedule: Q04DX003 (ip), vehicle: saline
[5] = dose: 50.0 mg/kg/injection, schedule: Q01DX005 (ip), vehicle: saline with Tween-80
[6] = dose: 100.0 mg/kg/injection, schedule: Q01DX005 (ip), vehicle: saline with Tween-80
[7] = dose: 100.0 mg/kg/injection, schedule: Q04DX003 (ip), vehicle: saline with Tween-80
[8] = dose: 200.0 mg/kg/injection, schedule: Q04DX003 (ip), vehicle: saline with Tween-80
[9] = dose: 60.0 mg/kg/injection, schedule: Q01DX005 (ip), vehicle: saline with Tween-80
[10] = dose: 120.0 mg/kg/injection, schedule: Q01DX005 (ip), vehicle: saline with Tween-80
[11] = dose: 240.0 mg/kg/injection, schedule: Q01DX005 (ip), vehicle: saline with Tween-80

Compound: O=C1OC(C(O)C(O)CO)C(O)C1O (centres undefined)
- T/C (dose: 50.0 mg/kg/injection, schedule: Q01DX005 (ip), vehicle: saline): 108 % of control
- T/C (dose: 100.0 mg/kg/injection, schedule: Q01DX005 (ip), vehicle: saline): 100 % of control
- T/C (dose: 200.0 mg/kg/injection, schedule: Q01DX005 (ip), vehicle: saline): 95 % of control

Compound: COc1cc(C=Nc2cccc3c2NCCC3)cc(OC)c1OC
- T/C [1]: 105 % of control
- T/C [2]: 98 % of control
- T/C [3]: 98 % of control

Compound: Nc1cnnc2nc[nH]c12
- T/C (dose: 12.5 mg/kg/injection, schedule: Q01DX005 (ip), vehicle: Klucel (hydroxypropylcellulose) (HPC)): 100 % of control
- T/C (dose: 25.0 mg/kg/injection, schedule: Q01DX005 (ip), vehicle: Klucel (hydroxypropylcellulose) (HPC)): 101 % of control
- T/C (dose: 50.0 mg/kg/injection, schedule: Q01DX005 (ip), vehicle: Klucel (hydroxypropylcellulose) (HPC)): 100 % of control and 111 % of control
- T/C (dose: 100.0 mg/kg/injection, schedule: Q01DX005 (ip), vehicle: Klucel (hydroxypropylcellulose) (HPC)): 117 % of control

Compound: COc1cc2cc(c1Cl)N(C)C(=O)C[C@H](OC(=O)[C@H](C)N(C)C(=O)CC(C)C)[C@]1(C)O[C@H]1[C@H](C)[C@@H]1C[C@@](O)(NC(=O)O1)[C@H](OC)C=C/C=C(\C)C2
- T/C (dose: 0.1 micrograms/kg/injection, schedule: Q01DX009 (ip), vehicle: saline): 107 % of control
- T/C (dose: 0.2 micrograms/kg/injection, schedule: Q01DX009 (ip), vehicle: saline): 107 % of control
- T/C (dose: 0.4 micrograms/kg/injection, schedule: Q01DX009 (ip), vehicle: saline): 114 % of control
- T/C (dose: 6.3 micrograms/kg/injection, schedule: Q01DX009 (ip), vehicle: saline + alcohol): 158 % of control
- T/C (dose: 12.5 micrograms/kg/injection, schedule: Q01DX009 (ip), vehicle: saline + alcohol): 169 % of control
- T/C (dose: 25.0 micrograms/kg/injection, schedule: Q01DX009 (ip), vehicle: saline + alcohol): 198 % of control

Compound: CSCSCC(CO)NC(=O)/C=C/c1c(C)[nH]c(=O)[nH]c1=O (centres undefined)
- T/C (dose: 0.08 mg/kg/injection, schedule: Q01DX009 (ip), vehicle: water): 105 % of control
- T/C (dose: 0.15 mg/kg/injection, schedule: Q01DX009 (ip), vehicle: water): 107 % of control
- T/C (dose: 0.3 mg/kg/injection, schedule: Q01DX009 (ip), vehicle: water): 102 % of control
- T/C (dose: 0.6 mg/kg/injection, schedule: Q01DX009 (ip), vehicle: water): 101 % of control
- T/C (dose: 1.2 mg/kg/injection, schedule: Q01DX009 (ip), vehicle: water): 109 % of control
- T/C (dose: 50.0 mg/kg/injection, schedule: Q01DX009 (ip), vehicle: other): 87 % of control
- T/C (dose: 100.0 mg/kg/injection, schedule: Q01DX009 (ip), vehicle: other): 98 % of control
- T/C (dose: 200.0 mg/kg/injection, schedule: Q01DX009 (ip), vehicle: other): 89 % of control
- T/C (dose: 400.0 mg/kg/injection, schedule: Q01DX009 (ip), vehicle: other): 86 % of control

Compound: CCOC(=O)Nc1nc2ccc(C(=O)OCC)cc2[nH]1
- T/C [4]: 108 % of control
- T/C (dose: 200.0 mg/kg/injection, schedule: Q04DX003 (ip), vehicle: saline): 101 % of control
- T/C (dose: 400.0 mg/kg/injection, schedule: Q04DX003 (ip), vehicle: saline): 108 % of control

Compound: CCc1[nH]c2ccccc2c1C(=O)c1cccnc1
- T/C (dose: 50.0 mg/kg/injection, schedule: Q04DX003 (ip), vehicle: Klucel (hydroxypropylcellulose) (HPC)): 101 % of control
- T/C (dose: 100.0 mg/kg/injection, schedule: Q04DX003 (ip), vehicle: Klucel (hydroxypropylcellulose) (HPC)): 97 % of control
- T/C (dose: 200.0 mg/kg/injection, schedule: Q04DX003 (ip), vehicle: Klucel (hydroxypropylcellulose) (HPC)): 100 % of control

Compound: O=C(O)C1C(C(=O)O)C2(Cl)C(Cl)=C(Cl)C1(Cl)C2(Cl)Cl.[Cu+2] (centres undefined)
- T/C (dose: 50.0 mg/kg/injection, schedule: Q01DX001 (ip), vehicle: saline sonified): 104 % of control
- T/C (dose: 100.0 mg/kg/injection, schedule: Q01DX001 (ip), vehicle: saline sonified): 118 % of control

Compound: C/C(=N\NC(=S)Nc1nccs1)c1nccc2ccccc12
- T/C [5]: 100 % of control
- T/C [6]: 114 % of control
- T/C (dose: 200.0 mg/kg/injection, schedule: Q01DX005 (ip), vehicle: saline with Tween-80): 122 % of control

Compound: CCN(CC)CCOc1ccc(C(C)=O)cc1
- T/C (dose: 25.0 mg/kg/injection, schedule: Q01DX005 (ip), vehicle: saline with Tween-80): 99 % of control
- T/C [5]: 92 % of control
- T/C [6]: 101 % of control

Compound: Cn1ccn2cnnc2c1=O
- T/C [1]: 100 % of control
- T/C [2]: 106 % of control
- T/C [3]: 99 % of control

Compound: N#Cc1ncc(-c2ccccc2)nc1Cl
- T/C (dose: 6.25 mg/kg/injection, schedule: Q01DX009 (ip), vehicle: saline with Tween-80): 100 % of control
- T/C (dose: 12.5 mg/kg/injection, schedule: Q01DX009 (ip), vehicle: saline with Tween-80): 104 % of control
- T/C (dose: 25.0 mg/kg/injection, schedule: Q01DX009 (ip), vehicle: saline with Tween-80): 100 % of control
- T/C (dose: 50.0 mg/kg/injection, schedule: Q01DX009 (ip), vehicle: saline with Tween-80): 110 % of control
- T/C (dose: 50.0 mg/kg/injection, schedule: Q04DX003 (ip), vehicle: saline with Tween-80): 100 % of control
- T/C (dose: 100.0 mg/kg/injection, schedule: Q01DX009 (ip), vehicle: saline with Tween-80): 120 % of control
- T/C [7]: 105 % of control
- T/C [8]: 100 % of control

Compound: C[CH2][Ge]1([CH2]C)[CH2]CC2(CCN(CCCN(C)C)C2)C[CH2]1
- T/C (dose: 0.09 mg/kg/injection, schedule: Q01DX009 (ip), vehicle: saline): 103 % of control
- T/C (dose: 0.19 mg/kg/injection, schedule: Q01DX009 (ip), vehicle: saline): 103 % of control and 98 % of control
- T/C (dose: 0.39 mg/kg/injection, schedule: Q01DX009 (ip), vehicle: saline): 101 % of control and 103 % of control
- T/C (dose: 0.78 mg/kg/injection, schedule: Q01DX009 (ip), vehicle: saline): 100 % of control and 104 % of control
- T/C (dose: 1.56 mg/kg/injection, schedule: Q01DX009 (ip), vehicle: saline): 100 % of control and 92 % of control
- T/C (dose: 3.12 mg/kg/injection, schedule: Q01DX009 (ip), vehicle: saline): 104 % of control and 98 % of control
- T/C (dose: 6.25 mg/kg/injection, schedule: Q01DX009 (ip), vehicle: saline): 104 % of control
- T/C (dose: 6.28 mg/kg/injection, schedule: Q01DX009 (ip), vehicle: water): 101 % of control
- T/C (dose: 12.5 mg/kg/injection, schedule: Q01DX009 (ip), vehicle: saline): 101 % of control and 104 % of control
- T/C (dose: 12.5 mg/kg/injection, schedule: Q01DX009 (ip), vehicle: water): 106 % of control
- T/C (dose: 25.0 mg/kg/injection, schedule: Q01DX009 (ip), vehicle: saline): 100 % of control and 105 % of control
- T/C (dose: 25.0 mg/kg/injection, schedule: Q01DX009 (ip), vehicle: water): 107 % of control
- T/C (dose: 50.0 mg/kg/injection, schedule: Q01DX009 (ip), vehicle: saline): 100 % of control and 98 % of control
- T/C (dose: 50.0 mg/kg/injection, schedule: Q01DX009 (ip), vehicle: water): 123 % of control
- T/C (dose: 75.0 mg/kg/injection, schedule: Q01DX009 (ip), vehicle: saline): 103 % of control and 104 % of control

Compound: Cc1ccc2c(c1)-c1oc(=O)c(C(N)=O)cc1C(C)O2 (centres undefined)
- T/C [9]: 92 % of control
- T/C [10]: 89 % of control
- T/C [11]: 87 % of control

Compound: Nc1nc(-c2ccccc2)c(CC(=O)O)c(-c2nc(N)nc(-c3ccccc3)c2CC(=O)O)n1
- T/C [9]: 100 % of control
- T/C [10]: 100 % of control
- T/C [11]: 86 % of control

Compound: OCC1CCN(CCOCc2ccccc2)C1 (centres undefined)
- T/C [9]: 94 % of control
- T/C [10]: 102 % of control

Compound: COC(=O)C(O)c1cccc(OC)c1 (centres undefined)
- T/C [7]: 113 % of control
- T/C [8]: 100 % of control
- T/C (dose: 400.0 mg/kg/injection, schedule: Q04DX003 (ip), vehicle: saline with Tween-80): 109 % of control

Compound: CCN(CC)CCSc1nnc(-c2ccc3c(c2)OCO3)o1
- T/C (dose: 50.0 mg/kg/injection, schedule: Q04DX003 (ip), vehicle: water): 99 % of control
- T/C (dose: 100.0 mg/kg/injection, schedule: Q04DX003 (ip), vehicle: water): 99 % of control
- T/C (dose: 200.0 mg/kg/injection, schedule: Q04DX003 (ip), vehicle: water): 101 % of control

Compound: COc1cccc2c1C(=O)c1c(O)c3c(c(O)c1C2=O)CC(O)(C(O)CO)CC3OC1CC(N2CCSCC2)C(O)C(C)O1 (centres undefined)
- T/C (dose: 3.12 mg/kg/injection, schedule: Q04DX003 (ip), vehicle: saline): 103 % of control
- T/C (dose: 6.25 mg/kg/injection, schedule: Q04DX003 (ip), vehicle: saline): 110 % of control
- T/C (dose: 12.5 mg/kg/injection, schedule: Q04DX003 (ip), vehicle: saline): 110 % of control and 112 % of control
- T/C (dose: 25.0 mg/kg/injection, schedule: Q04DX003 (ip), vehicle: saline): 122 % of control
- T/C [4]: 122 % of control
